Results on eleven molecules are retold here after ChEMBL document CHEMBL1201862, “PubChem BioAssay data set” (2004).

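The compound was tested at five concentrations on cells cultured in 96-well plates, with a 48-hour exposure period. GI50 marks 50% less growth.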 Calls of active or inactive are those of the source. Cut-off read from the data, not from the text of the source: active = GI50 up to about 1.1 µM and inactive = higher.

Test systems include 786-0; BT-549; DLD-1; EKVX; HCT-116; HOP-92; M14; MCF7; MDA-MB-231; MDA-N; Malme-3M; NCI-H226; NCI-H23; OVCAR-8; PC-3; SF-268; SR; SW-620; U-251; UACC-62.
Common to all, as to assay: NCI tumour cell line growth inhibition, 48 h

`CN1CCN(Cc2nc3cccc4c3c([n+]2[O-])-c2ccccc2-4)CC1`: the GI50 was 14.4 µM (inactive) with 786-0; 39 µM (inactive) in the experiment with BT-549; 54.5 µM (inactive) with DLD-1; 31.4 µM (inactive) in the experiment on EKVX; 4.41 µM (inactive) in the experiment on HCT-116; 36 µM (inactive) with HOP-92. Also, the GI50 in the experiment with M14 is 23.2 µM (inactive); in the experiment with MCF7, 12.8 µM (inactive); with MDA-MB-231, 15.8 µM (inactive); in the experiment on MDA-N, 12.6 µM (inactive); in the experiment on Malme-3M, 20.1 µM (inactive); with NCI-H226 it was 26.8 µM (inactive). The GI50 is 26.8 µM (inactive) with NCI-H23; 12.9 µM (inactive) with OVCAR-8; 11.4 µM (inactive) in the experiment on PC-3; 17.9 µM (inactive) with SF-268; 4.19 µM (inactive) in the experiment on SR; 22.8 µM (inactive) in the experiment on SW-620. Moreover, the GI50 in the experiment on U-251 is 20 µM (inactive); with UACC-62, 24.9 µM (inactive).
In the case of `CC(C)(Oc1ccc2c(=O)cc(-c3ccc(Cl)cc3)oc2c1)C(=O)Nc1c(Cl)cccc1Cl`, the GI50 in the experiment on 786-0, in the experiment on DLD-1, in the experiment on EKVX, in the experiment with HCT-116, in the experiment with HOP-92 and in the experiment with M14 was > 100 µM (inactive) throughout. The GI50 with Malme-3M is > 100 µM (inactive); in the experiment with NCI-H23 it was > 100 µM (inactive); in the experiment with OVCAR-8, > 100 µM (inactive); with SF-268, > 100 µM (inactive); in the experiment on SR, 79.3 µM (inactive); in the experiment on SW-620, > 100 µM (inactive). Also, the GI50 with U-251 and in the experiment on UACC-62 was > 100 µM (inactive) each time.
Turning to `CCC12CCCN(Cc3ccccc3)C1c1c(n(C)c3ccccc13)CC2` (stereo unspecified), the GI50 was > 253 µM (inactive) with 786-0; > 253 µM (inactive) in the experiment with DLD-1; > 253 µM (inactive) in the experiment on EKVX; 141 µM (inactive) with HCT-116; 110 µM (inactive) with HOP-92; > 253 µM (inactive) in the experiment on Malme-3M. Further, the GI50 in the experiment with NCI-H226 is > 253 µM (inactive); in the experiment with NCI-H23, 111 µM (inactive); in the experiment with OVCAR-8 it was > 253 µM (inactive); in the experiment with SF-268, 199 µM (inactive); with SR, 108 µM (inactive); in the experiment on SW-620 it was 178 µM (inactive). Moreover, the GI50 in the experiment on U-251 was 247 µM (inactive); in the experiment on UACC-62 it was 230 µM (inactive).
With `CN1CCN=C1c1nnn(-c2ccc([N+](=O)[O-])cc2)c1-c1ccccc1`, the GI50 in the experiment on 786-0 was > 100 µM (inactive); in the experiment with DLD-1, 67 µM (inactive); in the experiment with EKVX, > 100 µM (inactive); with HCT-116, > 100 µM (inactive); in the experiment with HOP-92, 13.6 µM (inactive); with M14 it was > 100 µM (inactive). Moreover, the GI50 in the experiment with Malme-3M, in the experiment with NCI-H226, in the experiment with NCI-H23, in the experiment on OVCAR-8, with SF-268 and with SR was > 100 µM (inactive) in each case. For the same molecule, the values for the GI50 in the experiment on SW-620, in the experiment with U-251 and with UACC-62 were 26.5 µM (inactive), 94.6 µM (inactive) and > 100 µM (inactive), respectively.
As to `COc1cc([C@@H]2c3cc4c(cc3[C@@H](NCc3ccccc3)C3COC(=O)[C@@H]32)OCO4)cc(OC)c1O` (stereo partly specified), the GI50 with 786-0 was 3.47 µM (inactive); in the experiment on DLD-1 it was 21.6 µM (inactive); in the experiment with EKVX it was 13.1 µM (inactive); with HCT-116, 14 µM (inactive); in the experiment with HOP-92, 5.83 µM (inactive); in the experiment with M14, 6.65 µM (inactive). Further, the GI50 was 11.2 µM (inactive) in the experiment with Malme-3M; 3.46 µM (inactive) in the experiment on NCI-H226; 3.64 µM (inactive) in the experiment on NCI-H23; 10.8 µM (inactive) in the experiment on OVCAR-8; 7.19 µM (inactive) in the experiment with SF-268; 0.345 µM (active) with SR. Besides, the GI50 with SW-620 is 8.57 µM (inactive); in the experiment on U-251, 3.71 µM (inactive); in the experiment on UACC-62, 3.83 µM (inactive).
Regarding `C#CCN(Cc1ccc2nc(-c3ccccc3)c(Cl)nc2c1)c1ccc(Cl)c(Cl)c1`, the GI50 with 786-0, in the experiment with DLD-1, with EKVX, in the experiment on HCT-116, in the experiment with HOP-92 and with M14 was > 100 µM (inactive) each time. Moreover, the GI50 with Malme-3M, in the experiment with NCI-H23, with OVCAR-8, in the experiment on SF-268, with SR and with SW-620 was > 100 µM (inactive) throughout. Further, the GI50 in the experiment on U-251 and in the experiment on UACC-62 was > 100 µM (inactive) throughout.
Take `CC1=CC(=O)NCCN1C`: the GI50 in the experiment with 786-0, with DLD-1, in the experiment with EKVX, in the experiment with HCT-116, with HOP-92 and in the experiment on M14 was > 100 µM (inactive) each time. In addition, the GI50 with Malme-3M, in the experiment on NCI-H226, in the experiment with NCI-H23, with OVCAR-8, with SF-268 and with SR was > 100 µM (inactive) throughout. Also, the values for the GI50 in the experiment with SW-620, in the experiment with U-251 and in the experiment with UACC-62 were 24.2 µM (inactive), > 100 µM (inactive) and > 100 µM (inactive), respectively.
With `COc1cc2cnc3c4cc(OCc5ccccc5)ccc4ccc3c2cc1OC`, the GI50 in the experiment on 786-0 was 12.1 µM (inactive); in the experiment on DLD-1, 18.4 µM (inactive); in the experiment on EKVX, 58.3 µM (inactive); in the experiment with HCT-116, 45.8 µM (inactive); in the experiment on HOP-92, 16.6 µM (inactive); in the experiment on M14, 19.8 µM (inactive). Also, the GI50 in the experiment with Malme-3M was 36.3 µM (inactive); with NCI-H226, 25.8 µM (inactive); in the experiment with NCI-H23 it was 25.2 µM (inactive); in the experiment on OVCAR-8, 18.2 µM (inactive); in the experiment with SF-268, 19.4 µM (inactive); with SR, 4.5 µM (inactive). The results for the GI50 in the experiment with SW-620, with U-251 and in the experiment with UACC-62 were 54.3 µM (inactive), 24.3 µM (inactive) and 39.5 µM (inactive), respectively.
As to `CC(N)CC(=O)O` (stereo unspecified), the GI50 in the experiment on 786-0, with DLD-1, in the experiment with EKVX, in the experiment with HCT-116, with HOP-92 and with M14 was > 5000 µM (inactive) throughout. The GI50 in the experiment with Malme-3M, in the experiment on NCI-H226, in the experiment on NCI-H23, with SF-268, in the experiment with SR and in the experiment on SW-620 was > 5000 µM (inactive) throughout. Further, the GI50 with U-251 and in the experiment with UACC-62 was > 5000 µM (inactive) each time.
With `CC/C=C\C/C=C\C/C=C\CCCCCCCC(=O)OCC(O)CO` (stereo unspecified), the GI50 in the experiment on 786-0 is > 63.1 µM (inactive); with DLD-1, > 100 µM (inactive); in the experiment on EKVX it was > 88.7 µM (inactive); with HCT-116, > 55.6 µM (inactive); in the experiment with HOP-92, > 68.1 µM (inactive); with M14, > 61.7 µM (inactive). Moreover, the GI50 is > 100 µM (inactive) in the experiment with Malme-3M; > 100 µM (inactive) with NCI-H226; > 74.5 µM (inactive) with NCI-H23; > 67.8 µM (inactive) in the experiment with OVCAR-8; > 90.8 µM (inactive) in the experiment on SF-268; 1 µM (active) in the experiment on SR. Also, the values for the GI50 in the experiment on SW-620, in the experiment with U-251 and in the experiment with UACC-62 were 58.2 µM (inactive), > 57.8 µM (inactive) and > 100 µM (inactive), respectively.
In the case of `Cc1c2cc[n+](C)cc2c(C)c2c1[nH]c1ccc(Cl)cc12`, the GI50 is 0.232 µM (active) in the experiment on 786-0; 1.26 µM (inactive) in the experiment on BT-549; 1.05 µM (active) in the experiment with DLD-1; 0.536 µM (active) in the experiment on EKVX; 0.881 µM (active) in the experiment on HCT-116; 2.96 µM (inactive) in the experiment on HOP-92. The GI50 with M14 was 5.57 µM (inactive); with MCF7 it was 2.59 µM (inactive); in the experiment on MDA-MB-231, 4.41 µM (inactive); in the experiment on MDA-N, 7.11 µM (inactive); with Malme-3M, 1.74 µM (inactive); in the experiment on NCI-H226, 0.272 µM (active). For the same molecule, the GI50 is 0.843 µM (active) in the experiment on NCI-H23; 0.298 µM (active) with OVCAR-8; 0.918 µM (active) in the experiment with PC-3; 0.29 µM (active) in the experiment with SF-268; 5.32 µM (inactive) with SR; 0.176 µM (active) in the experiment with SW-620. Further, the GI50 in the experiment on U-251 is 0.25 µM (active); in the experiment with UACC-62, 3.98 µM (inactive).
